Measurements taken from PubChem BioAssay (NCI).
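In this assay, cells in 96-well plates receive the compound at five concentrations for 48 hours. Endpoints are linearly interpolated between the surrounding concentrations. GI50: concentration for 50% inhibition of growth. The concentration for full growth arrest is given as TGI.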

How the values were obtained:
Experiment in all cases: NCI tumour cell line growth inhibition, 48 h
[1] = tested on: 786-0 renal
[2] = tested on: A498 renal
[3] = tested on: A549 NSCLC
[4] = tested on: ACHN renal
[5] = tested on: CAKI-1 renal
[6] = tested on: CCRF-CEM leukemia
[7] = tested on: DLD-1 colon
[8] = tested on: DMS 114 small cell lung
[9] = tested on: DMS 273 small cell lung
[10] = tested on: EKVX NSCLC
[11] = tested on: HCC-2998 colon
[12] = tested on: HCT-116 colon
[13] = tested on: HCT-15 colon
[14] = tested on: HL-60(TB) leukemia
[15] = tested on: HOP-62 NSCLC
[16] = tested on: HT29 colon
[17] = tested on: K-562 leukemia
[18] = tested on: KM12 colon
[19] = tested on: LXFL 529 NSCLC
[20] = tested on: M14 melanoma
[21] = tested on: M19-MEL melanoma
[22] = tested on: MALME-3M melanoma
[23] = tested on: MOLT-4 leukemia
[24] = tested on: NCI-H226 lung
[25] = tested on: NCI-H23 lung
[26] = tested on: NCI-H460 lung
[27] = tested on: NCI-H522 lung
[28] = tested on: OVCAR-3 ovarian
[29] = tested on: OVCAR-4 ovarian
[30] = tested on: OVCAR-5 ovarian
[31] = tested on: OVCAR-8 ovarian
[32] = tested on: RXF 393 renal
[33] = tested on: SF-268 CNS
[34] = tested on: SF-295 CNS
[35] = tested on: SF-539 CNS
[36] = tested on: SK-MEL-2 melanoma
[37] = tested on: SK-MEL-28 melanoma
[38] = tested on: SK-MEL-5 melanoma
[39] = tested on: SK-OV-3 ovarian
[40] = tested on: SN12C renal
[41] = tested on: SNB-19 CNS
[42] = tested on: SNB-75 CNS
[43] = tested on: SNB-78 CNS
[44] = tested on: SR leukemia
[45] = tested on: SW-620 colon
[46] = tested on: TK-10 renal
[47] = tested on: U251 CNS
[48] = tested on: UACC-257 melanoma
[49] = tested on: UO-31 renal
[50] = tested on: COLO 205 colon
[51] = tested on: HOP-18 NSCLC
[52] = tested on: HOP-92 NSCLC
[53] = tested on: IGROV1 ovarian
[54] = tested on: LOX IMVI melanoma
[55] = tested on: RPMI-8226 leukemia
[56] = tested on: UACC-62 melanoma

Question: Which TGI [1] does the source give for CCCC12Cc3c(OC)ccc(OC)c3CC(Cc3c(OC)ccc(OC)c31)C2=O (stereo not drawn) here?
Answer: > 100 µM

Question: And the TGI [2]?
Answer: > 100 µM

Question: And the TGI [3]?
Answer: > 100 µM

Question: And the TGI [4]?
Answer: > 100 µM

Question: And the TGI [5]?
Answer: > 100 µM

Question: And the TGI [6]?
Answer: > 100 µM

Question: And the TGI [7]?
Answer: > 100 µM

Question: What about the TGI [8] of the same compound?
Answer: > 100 µM

Question: What about the TGI [9] of the same compound?
Answer: > 100 µM

Question: What about the TGI [10] of the same compound?
Answer: > 100 µM

Question: What about the TGI [11] of the same compound?
Answer: > 100 µM

Question: And the TGI [12]?
Answer: > 100 µM

Question: What about the TGI [13] of the same compound?
Answer: > 100 µM

Question: What about the TGI [14] of the same compound?
Answer: > 100 µM

Question: And the TGI [15]?
Answer: > 100 µM

Question: And the TGI [16]?
Answer: > 100 µM

Question: And the TGI [17]?
Answer: > 100 µM

Question: What about the TGI [18] of the same compound?
Answer: > 100 µM

Question: What about the TGI [19] of the same compound?
Answer: > 100 µM

Question: And the TGI [20]?
Answer: > 100 µM

Question: And the TGI [21]?
Answer: > 100 µM

Question: What about the TGI [22] of the same compound?
Answer: > 100 µM

Question: What about the TGI [23] of the same compound?
Answer: > 100 µM

Question: What about the TGI [24] of the same compound?
Answer: > 100 µM

Question: What about the TGI [25] of the same compound?
Answer: > 100 µM

Question: And the TGI [26]?
Answer: > 100 µM

Question: And the TGI [27]?
Answer: > 100 µM

Question: And the TGI [28]?
Answer: > 100 µM

Question: And the TGI [29]?
Answer: > 100 µM

Question: What about the TGI [30] of the same compound?
Answer: > 100 µM

Question: What about the TGI [31] of the same compound?
Answer: > 100 µM

Question: And the TGI [32]?
Answer: > 100 µM

Question: And the TGI [33]?
Answer: > 100 µM

Question: What about the TGI [34] of the same compound?
Answer: > 100 µM

Question: What about the TGI [35] of the same compound?
Answer: > 100 µM

Question: And the TGI [36]?
Answer: > 100 µM

Question: And the TGI [37]?
Answer: > 100 µM

Question: And the TGI [38]?
Answer: > 100 µM

Question: What about the TGI [39] of the same compound?
Answer: > 100 µM

Question: What about the TGI [40] of the same compound?
Answer: > 100 µM

Question: And the TGI [41]?
Answer: > 100 µM

Question: What about the TGI [42] of the same compound?
Answer: > 100 µM

Question: And the TGI [43]?
Answer: > 100 µM

Question: What about the TGI [44] of the same compound?
Answer: > 100 µM

Question: And the TGI [45]?
Answer: > 100 µM

Question: And the TGI [46]?
Answer: > 100 µM

Question: And the TGI [47]?
Answer: > 100 µM

Question: What about the TGI [48] of the same compound?
Answer: > 100 µM

Question: What about the TGI [49] of the same compound?
Answer: > 100 µM

Question: Which GI50 [1] does the source give for CC(C)CC(=O)[O-].CC(C)CC(=O)[O-].N.N.N.N.[Co+3].[O-][Cl+3]([O-])([O-])O.[O-][Cl+3]([O-])([O-])[O-] here?
Answer: > 100 µM

Question: What about the TGI [1] of the same compound?
Answer: > 100 µM

Question: And the GI50 [3]?
Answer: > 100 µM

Question: What about the TGI [3] of the same compound?
Answer: > 100 µM

Question: What about the GI50 [4] of the same compound?
Answer: > 100 µM

Question: And the TGI [4]?
Answer: > 100 µM

Question: And the GI50 [6]?
Answer: > 100 µM

Question: And the TGI [6]?
Answer: > 100 µM

Question: What about the GI50 [50] of the same compound?
Answer: > 100 µM

Question: And the TGI [50]?
Answer: > 100 µM

Question: What about the GI50 [7] of the same compound?
Answer: > 100 µM

Question: And the TGI [7]?
Answer: > 100 µM

Question: What about the GI50 [10] of the same compound?
Answer: > 100 µM

Question: What about the TGI [10] of the same compound?
Answer: > 100 µM

Question: What about the GI50 [11] of the same compound?
Answer: > 100 µM

Question: And the TGI [11]?
Answer: > 100 µM

Question: What about the GI50 [13] of the same compound?
Answer: > 100 µM

Question: And the TGI [13]?
Answer: > 100 µM

Question: And the GI50 [14]?
Answer: > 100 µM

Question: What about the TGI [14] of the same compound?
Answer: > 100 µM

Question: And the GI50 [51]?
Answer: > 100 µM

Question: What about the TGI [51] of the same compound?
Answer: > 100 µM

Question: And the GI50 [52]?
Answer: > 100 µM

Question: What about the TGI [52] of the same compound?
Answer: > 100 µM

Question: And the GI50 [53]?
Answer: > 100 µM

Question: What about the TGI [53] of the same compound?
Answer: > 100 µM

Question: What about the GI50 [17] of the same compound?
Answer: > 100 µM

Question: And the TGI [17]?
Answer: > 100 µM

Question: What about the GI50 [18] of the same compound?
Answer: > 100 µM

Question: And the TGI [18]?
Answer: > 100 µM

Question: And the GI50 [54]?
Answer: > 100 µM

Question: And the TGI [54]?
Answer: > 100 µM

Question: What about the GI50 [19] of the same compound?
Answer: > 100 µM

Question: And the TGI [19]?
Answer: > 100 µM

Question: What about the GI50 [20] of the same compound?
Answer: > 100 µM

Question: And the TGI [20]?
Answer: > 100 µM

Question: What about the GI50 [22] of the same compound?
Answer: > 100 µM

Question: What about the TGI [22] of the same compound?
Answer: > 100 µM

Question: And the GI50 [23]?
Answer: > 100 µM

Question: And the TGI [23]?
Answer: > 100 µM

Question: What about the GI50 [24] of the same compound?
Answer: > 100 µM

Question: What about the TGI [24] of the same compound?
Answer: > 100 µM

Question: What about the GI50 [25] of the same compound?
Answer: > 100 µM

Question: What about the TGI [25] of the same compound?
Answer: > 100 µM

Question: What about the GI50 [30] of the same compound?
Answer: > 100 µM

Question: And the TGI [30]?
Answer: > 100 µM

Question: What about the GI50 [31] of the same compound?
Answer: > 100 µM

Question: What about the TGI [31] of the same compound?
Answer: > 100 µM

Question: What about the GI50 [55] of the same compound?
Answer: > 100 µM

Question: And the TGI [55]?
Answer: > 100 µM

Question: And the GI50 [32]?
Answer: > 100 µM

Question: What about the TGI [32] of the same compound?
Answer: > 100 µM

Question: What about the GI50 [33] of the same compound?
Answer: > 100 µM

Question: What about the TGI [33] of the same compound?
Answer: > 100 µM

Question: And the GI50 [34]?
Answer: > 100 µM

Question: What about the TGI [34] of the same compound?
Answer: > 100 µM

Question: What about the GI50 [35] of the same compound?
Answer: > 100 µM

Question: And the TGI [35]?
Answer: > 100 µM

Question: And the GI50 [36]?
Answer: > 100 µM

Question: What about the TGI [36] of the same compound?
Answer: > 100 µM

Question: And the GI50 [37]?
Answer: > 100 µM

Question: And the TGI [37]?
Answer: > 100 µM

Question: And the GI50 [39]?
Answer: > 100 µM

Question: What about the TGI [39] of the same compound?
Answer: > 100 µM

Question: And the GI50 [40]?
Answer: > 100 µM

Question: What about the TGI [40] of the same compound?
Answer: > 100 µM

Question: What about the GI50 [41] of the same compound?
Answer: > 100 µM

Question: What about the TGI [41] of the same compound?
Answer: > 100 µM

Question: And the GI50 [42]?
Answer: > 100 µM

Question: And the TGI [42]?
Answer: > 100 µM

Question: And the GI50 [43]?
Answer: > 100 µM

Question: What about the TGI [43] of the same compound?
Answer: > 100 µM

Question: What about the GI50 [44] of the same compound?
Answer: > 100 µM

Question: And the TGI [44]?
Answer: > 100 µM

Question: What about the GI50 [45] of the same compound?
Answer: > 100 µM

Question: What about the TGI [45] of the same compound?
Answer: > 100 µM

Question: What about the GI50 [46] of the same compound?
Answer: > 100 µM

Question: And the TGI [46]?
Answer: > 100 µM

Question: And the GI50 [48]?
Answer: > 100 µM

Question: And the TGI [48]?
Answer: > 100 µM

Question: What about the GI50 [56] of the same compound?
Answer: > 100 µM

Question: What about the TGI [56] of the same compound?
Answer: > 100 µM

Question: What about the GI50 [49] of the same compound?
Answer: > 100 µM

Question: And the TGI [49]?
Answer: > 100 µM
